Activity, inhibition of growth and I75 data for one molecule are collected here from ChEMBL document CHEMBL3046449, “Selective Herbicidal Activities of Ethyl 5-(4, 6-Dimethoxypyrimidin-2-ylcarbamoylsulfamoyl)-1-methylpyrazole-4-carboxylate and Its Related Compounds” (J Pestic Sci, 1990).

The test system of series [1] is Pontederia vaginalis. In words: Herbicidal activity against Monochoria vaginalis assessed as weed control in transplanted rice field at 30 g/ha treated after 10 days transplanting. Type of series: functional.
Series [2] concerns Schoenoplectiella juncoides. Briefly: Herbicidal activity against Schoenoplectiella juncoides assessed as weed control in transplanted rice field at 30 g/ha treated after 10 days transplanting. The format is functional.
For series [3], the system named is Cyperus serotinus. In words: Herbicidal activity against Cyperus serotinus assessed as weed control in transplanted rice field at 30 g/ha treated after 7 days transplanting. The format is functional.
The subject of series [4] is Sagittaria pygmaea. In words: Herbicidal activity against Sagittaria pygmaea assessed as weed control in transplanted rice field at 30 g/ha treated after 7 days transplanting. Type of series: functional.
For series [5], the system named is Schoenoplectiella juncoides. In words: Herbicidal activity against Schoenoplectiella juncoides assessed as growth inhibition in paddy condition under greenhouse at 5 g/ha measured after 18 days by preemergence activity assay. The format is functional. The note with it: pre-emergence, 432 h, read-out: GI.
In series [6] the test system is Oryza sativa. In words: Effect on Oryza sativa (rice) plant growth in transplanted Oryza sativa field assessed as plant height at 30 g/ha treated after 7 days transplanting. The note with it: in vivo, other, 168 h. The format is organism-based.
Series [7] deals with Sagittaria pygmaea. Briefly: Herbicidal activity against Sagittaria pygmaea assessed as weed control in transplanted rice field at 30 g/ha treated after 15 days transplanting. The format is functional.
Series [8] concerns Pontederia vaginalis. In words: Herbicidal activity against Monochoria vaginalis assessed as weed control in transplanted rice field at 30 g/ha treated after 15 days transplanting. Type of series: functional.
Series [9] concerns Echinochloa crus-galli. In words: Herbicidal activity against Echinochloa crus-galli (barnyard grass) assessed as weed control in transplanted rice field at 30 g/ha treated after 15 days transplanting. Type of series: functional.
Another series has as its system unidentified. In words: Herbicidal activity against broadleaf weed assessed as weed control in transplanted rice field at 30 g/ha treated after 7 days transplanting. The format is functional.
Series [10] has as its system Oryza sativa. In words: Effect on Oryza sativa (rice) plant growth in transplanted Oryza sativa field assessed as number of tillers at 30 g/ha treated after 15 days transplanting. The format is organism-based. The following applies: in vivo, other, 360 h.
The subject of series [11] is Oryza sativa. Briefly: Effect on Oryza sativa (rice) plant growth in transplanted Oryza sativa field assessed as number of tillers at 30 g/ha treated after 7 days transplanting. Type of series: organism-based. The note with it: in vivo, other, 168 h.
The test system of series [12] is Pontederia vaginalis. In words: Herbicidal activity against Monochoria vaginalis assessed as weed control in transplanted rice field at 20 g/ha treated after 7 days transplanting. The format is functional.
Series [13] in a line: Herbicidal activity against broadleaf weed assessed as weed control in transplanted rice field at 20 g/ha treated after 3 days transplanting. The format is functional.
In series [14] the test system is Pontederia vaginalis. In words: Herbicidal activity against Monochoria vaginalis assessed as weed control in transplanted rice field at 20 g/ha treated after 3 days transplanting. Type of series: functional.
The subject of series [15] is Cyperus serotinus. Briefly: Herbicidal activity against three to four-leaf stage Cyperus serotinus assessed as growth inhibition treated 7 to 15 days after planting measured by postemergence activity assay. Type of series: functional.
The test system of series [16] is Pontederia vaginalis. Briefly: Herbicidal activity against three to five-leaf stage Monochoria vaginalis assessed as growth inhibition treated 7 to 15 days after planting measured by postemergence activity assay. The format is functional.
The test system of series [17] is Schoenoplectiella juncoides. In words: Herbicidal activity against two-leaf stage Schoenoplectiella juncoides assessed as growth inhibition treated 7 to 15 days after planting measured by postemergence activity assay. The format is functional.
The next series deals with Eleocharis kuroguwai. Briefly: Herbicidal activity against Eleocharis kuroguwai assessed as growth inhibition measured after 2 days by pre-emergence activity assay. The format is functional.
Series [18] concerns Pontederia vaginalis. Briefly: Herbicidal activity against Monochoria vaginalis assessed as growth inhibition measured after 2 days by preemergence activity assay. Type of series: functional.
The test system of series [19] is Echinochloa crus-galli. Briefly: Herbicidal activity against Echinochloa crus-galli (barnyard grass) assessed as weed control in transplanted rice field at 30 g/ha treated after 7 days transplanting. Type of series: functional.
In series [20] the test system is Echinochloa crus-galli. In words: Herbicidal activity against Echinochloa crus-galli (barnyard grass) assessed as weed control in transplanted rice field at 30 g/ha treated after 3 days transplanting. Type of series: functional.

Molecules are shown by their SMILES.

Regarding `CCOC(=O)c1cnn(C)c1S(=O)(=O)NC(=O)Nc1nc(OC)cc(OC)n1` [PYRAZOSULFURON ETHYL], the Activity in the series on Pontederia vaginalis [1] turned out to be 93%; in [2], 93%; in the series with Cyperus serotinus [3] it was 100%; in the series with Sagittaria pygmaea [4], 98%; in the series with Oryza sativa [6] it was 104%; with Sagittaria pygmaea [7], 95%. The Activity with Pontederia vaginalis [8] is listed as 97%; with Echinochloa crus-galli [9], 85%; in the series on unidentified, 100%; in the series on Oryza sativa [10], 105%; in the series on Oryza sativa [11], 100%; in the series on Pontederia vaginalis [12], 100%. The Activity in series [13] came out at 100%; with Pontederia vaginalis [14], 100%; in the series with Echinochloa crus-galli [19] it was 98%; in the series with Echinochloa crus-galli [20], 97%. Further, the inhibition of growth at 5 g/ha in [5] is over 90%. Further, the I75 in the series on Cyperus serotinus [15] was 1.9 gAi/ha; in the series on Pontederia vaginalis [16], 2.7 gAi/ha; in [17], 13 gAi/ha; in the series with Eleocharis kuroguwai, 1.9 gAi/ha; with Pontederia vaginalis [18] it was 2.7 gAi/ha.
